From patent publication US20080311657A1, “Killing Human Lymphoma and Leukemia Cancer Cells and Tcr-Activated Normal Human Cells By Dopamine D1r Agonists” (priority 2005, published 2008) come the findings set out here.

Molecules are shown by their SMILES.

Common to all, as to assay: Number of living cells counted by flow cytometry (FACSort) after D1R agonist
Common to all, as to format: cell-based
Conditions in all cases: 10^−3M-10^−6M, 3 days
(In flow cytometry, cells or beads pass a laser one at a time.)

Data set [1] has as its system Human T-cell leukemia (Jurkat) cells. As to the method: Afterwards, the microtiter plates were placed in an incubator (37° C., humidified incubator, 5% CO2) for 3 days. Then, the number of living cells was evaluated by flow cytometry (the cells were counted by FACsort for a fixed time length of 1 min, in which 100 microliter of each sample was tested). Of note, A 77636 hydrochloride is an orally-active D1R agonist, according to the manufacturer (Tocris).
(§1) Afterwards, the microtiter plates were placed in an incubator (37° C., humidified incubator, 5% CO2) for 3 days. Then, the number of living cells was evaluated by flow cytometry (the cells were counted by FACsort for a fixed time length of 1 min, in which 100 microliter of each sample was tested).
(§2) The experiment was designed to test the effect of exposing the cells to the D1R agonist for 1 min, 15 min, 1 hr or 72 hr. Thus, 1 min, or 15 min or 1 hr after the addition of the D1R agonist, the corresponding cells were transferred into tubes, centrifuged (1000 rpm for 10 min); and the supernatant was removed. […] Thus, its medium was not replaced, and these cells and remained as such in the incubator for 72 hr. At the end of the 72 hr incubation, the number of living cells was evaluated by flow cytometry (the cells were counted by FACsort for a fixed time length of 1 min, in which 100 microliter of each sample was tested).
(§3) Cell viability was tested afterwards.
(§4) For this purpose, the Jurkat T-cell leukemia line, the HuT-78 human T-lymphoma (cutaneous “Sezary” T-lymphoma) line, and the K-562 human Chronic-Myeloid Leukemia (CML) and Daudi Human B-lymphoma (Burkitt's lymphoma) lines were seeded in tissue culture wells (0.5 million cells/0.5 ml/well).
(§5) Cell survival/death was evaluated 3 days later by counting the number of living cells, using flow cytometry.

The test system of data set [2] is Human cutaneous Sezary T-lymphoma cells (HuT-78). As to the method: (§6) Human cutaneous Sezary T-lymphoma cells (HUT-78) were seeded in 96 well plates (0.5 ml per well of 0.5 million cells/ml) and A 77636 hydrochloride was added and diluted 1:00 into the wells at starting concentrations of 10^−1M-10^−4M, so that the final concentration range tested was 10^−3M-10^−6M. Afterwards, the microtiter plates were placed in an incubator (37° C., humidified incubator, 5% CO2) for 3 days. Then, the number of living cells was evaluated by flow cytometry (the cells were counted by FACsort for a fixed time length of 1 min, in which 100 microliter of each sample was tested).
(§7) Human cutaneous Sezary T-lymphoma cells (HUT-78) were seeded in 96 well plates (0.5 ml per well of 0.5 million cells/ml) and A 68930 hydrochloride was added and diluted 1:00 into the wells at starting concentrations of 10^−1M-10^−4M, so that the final concentration range tested was 10^−3M-10^−6M. Afterwards, the microtiter plates were placed in an incubator (37° C., humidified incubator, 5% CO2) for 3 days. Then, the number of living cells was evaluated by flow cytometry (the cells were counted by FACsort for a fixed time length of 1 min, in which 100 microliter of each sample was tested).
(§8) Human cutaneous Sezary T-lymphoma cells (HUT-78) were seeded in 96 well plates (0.5 ml per well of 0.5 million cells/ml) and SKF 38393 hydrobromide was added and diluted 1:00 into the wells at starting concentrations of 10^−1M-10^−4M, so that the final concentration range tested was 10^−3M-10^−6M. Afterwards, the microtiter plates were placed in an incubator (37° C., humidified incubator, 5% CO2) for 3 days. Then, the number of living cells was evaluated by flow cytometry (the cells were counted by FACsort for a fixed time length of 1 min, in which 100 microliter of each sample was tested).
Cell viability was tested afterwards. […]
as §5

For data set [3], the system named is Human chronic myelogenous leukemia cells (CML) (K-562). The method, then:
as §6, with “chronic myelogenous leukemia” for “cutaneous Sezary T-lymphoma”, “(CML) (K-562)” for “(HUT-78)”
as §7, with “chronic myelogenous leukemia” for “cutaneous Sezary T-lymphoma”, “(CML) (K-562)” for “(HUT-78)”
as §8, with “chronic myelogenous leukemia” for “cutaneous Sezary T-lymphoma”, “(CML) (K-562)” for “(HUT-78)”
as §2, with “Human chronic myelogenous leukemia cells (CML) (K-562) were seeded in 96 well plates (0.5 ml per well of 0.5 million cells/ml) and A 77636 hydrochloride was added and diluted 1:00 into the wells, at a fixed starting concentration of 10^−2M, so that the final concentration tested was 10^−4M. The” for “The”, “min),” for “min);”
as §3, §4, §5
(§9) The effect of dopamine itself (that can of course activate all its D1R-5 receptors) was also tested. All of these molecules were tested at a similar concentration (10^−4 M). […] The specificity and restriction of the effect to the D1R is also seen in Tables 7 and 8.

For data set [4], the system named is Human Burkitt's B-lymphoma cells (Daudi). The method, then:
Human Burkitt's B-lymphoma cells (Daudi) were seeded in 96 well plates (0.5 ml per well of 0.5 million cells/ml) and A 77636 hydrochloride was added and diluted 1:00 into the wells at starting concentrations of 10^−1M-10^−4M, so that the final concentration range tested was 10^−3M-10^−6M. […] Then, the number of living cells was evaluated by flow cytometry (the cells were counted by FACsort for a fixed time length of 1 min, in which 100 microliter of each sample was tested).
Human Burkitt's B-lymphoma cells (Daudi) were seeded in 96 well plates (0.5 ml per well of 0.5 million cells/ml) and A 68930 hydrochloride was added and diluted 1:00 into the wells at starting concentrations of 10^−1M-10^−4M, so that the final concentration range tested was 10^−3M-10^−6M. […] Then, the number of living cells was evaluated by flow cytometry (the cells were counted by FACsort for a fixed time length of 1 min, in which 100 microliter of each sample was tested).
[…] Then, the number of living cells was evaluated by flow cytometry (the cells were counted by FACsort for a fixed time length of 1 min, in which 100 microliter of each sample was tested).
as §3, §9

For data set [5], the system named is Human Burkitt's B-cell lymphoma (Raji) cells. The method, then: as §1, §3
Data set [6] concerns resting normal human T-cells. As to the method:
as §1
FIGS. 31A and B are graphs showing that A 77636 hydrochloride kills much more TCR-activated (FIG. 31B) than resting normal (FIG. 31A) human T-cells. […] The cells were then transferred to the incubator for 72 hr incubation. At the end of the 72 hr incubation, the number of living cells in each well was evaluated by flow cytometry (the cells were counted by FACsort for a fixed time length of 1 min, in which 100 microliter of each sample was tested).
as §3

On to `Br.Oc1cc2c(cc1O)C(c1ccccc1)CNCC2` (racemic) [SKF 38393 hydrobromide, (±)-1-phenyl-2,3,4,5-tetrahydro-(1H)-3-benzazepine-7,8-diol hydrobromide], for which the “Cell death by number of living cells (FIGS. 10-12), in words” value in data set [1] is “induces marked cell death”. The “Cell death by number of living cells (FIGS. 13-15), in words” value in data set [2] is “induces marked cell death”. For the same compound, in data set [3], the “Cell death by number of living cells (FIGS. 22-24), in words” value is given as “induces marked cell death”. The “Cell death by number of living cells (FIGS. 16-18), in words” value in data set [4] is “induces marked cell death”. For the same compound, the “Cell death by number of living cells (FIGS. 19-21), in words” value in data set [5] is reported as “induces marked cell death”. Besides, the “Killing effect by number of living cells (FIGS. 25-27), in words” value in data set [6] is on record as “significantly milder killing effect”.
